Experimental data from the kinase profiling compilation of Christmann-Franck et al. (2016).

Columns and labels:
Assay in all cases: KINOMEscan competition binding
Settings in all cases: compound 10.0 µM; call rule not given here
PLK3 (human) = PLK3 (human) (UniProt Q9H4B4)
STK32C (human) = STK32C (human) (UniProt Q86UX6)
RIPK2 (human) = RIPK2 (human) (UniProt O43353)
PTK2 (human) = PTK2 (human) (UniProt Q05397)
MAPK9 (human) = MAPK9 (human) (UniProt P45984)
PRKACB (human) = PRKACB (human) (UniProt P22694)
PIM2 (human) = PIM2 (human) (UniProt Q9P1W9)
PRKCA (human) = PRKCA (human) (UniProt P17252)
PAK3 (human) = PAK3 (human) (UniProt O75914)
FGFR4 (human) = FGFR4 (human) (UniProt P22455)
STK32B (human) = STK32B (human) (UniProt Q9NY57)
NEK9 (human) = NEK9 (human) (UniProt Q8TD19)
TXK (human) = TXK (human) (UniProt P42681)
Chain of TXK (human) (P42681 whole entry, looked up): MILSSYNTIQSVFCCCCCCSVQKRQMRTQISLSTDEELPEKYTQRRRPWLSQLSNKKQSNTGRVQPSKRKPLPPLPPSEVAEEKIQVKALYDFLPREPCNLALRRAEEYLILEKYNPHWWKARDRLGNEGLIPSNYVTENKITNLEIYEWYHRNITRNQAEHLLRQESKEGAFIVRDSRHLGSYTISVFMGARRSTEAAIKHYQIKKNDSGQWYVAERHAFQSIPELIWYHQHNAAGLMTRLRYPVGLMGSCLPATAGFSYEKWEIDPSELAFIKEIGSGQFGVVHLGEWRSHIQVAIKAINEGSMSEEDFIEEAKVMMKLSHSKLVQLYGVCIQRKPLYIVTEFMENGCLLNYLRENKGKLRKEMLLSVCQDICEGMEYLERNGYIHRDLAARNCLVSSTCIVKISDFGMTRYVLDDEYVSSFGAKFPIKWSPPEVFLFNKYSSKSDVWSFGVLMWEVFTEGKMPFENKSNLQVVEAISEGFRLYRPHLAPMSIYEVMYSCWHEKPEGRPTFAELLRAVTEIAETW

PHKG1 (human) = PHKG1 (human) (UniProt Q16816)
Chain of PHKG1 (human) (Q16816 whole entry, looked up): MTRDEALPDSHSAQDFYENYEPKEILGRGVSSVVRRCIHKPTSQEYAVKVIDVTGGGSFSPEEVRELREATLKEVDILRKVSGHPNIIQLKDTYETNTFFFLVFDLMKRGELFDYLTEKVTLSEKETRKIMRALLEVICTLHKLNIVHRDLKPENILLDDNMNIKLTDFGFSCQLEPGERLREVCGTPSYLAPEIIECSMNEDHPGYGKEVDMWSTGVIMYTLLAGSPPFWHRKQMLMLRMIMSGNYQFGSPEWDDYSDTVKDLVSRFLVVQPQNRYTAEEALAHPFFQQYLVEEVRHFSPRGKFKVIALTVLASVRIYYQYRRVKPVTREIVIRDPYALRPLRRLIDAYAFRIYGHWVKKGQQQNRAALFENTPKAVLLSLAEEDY

PKMYT1 (human) = PKMYT1 (human) (UniProt Q99640)
ACVR1B (human) = ACVR1B (human) (UniProt P36896)
BMPR1A (human) = BMPR1A (human) (UniProt P36894)
DMPK (human) = DMPK (human) (UniProt Q09013)
EPHA6 (human) = EPHA6 (human) (UniProt Q9UF33)
PRKG2 (human) = PRKG2 (human) (UniProt Q13237)
Chain of PRKG2 (human) (Q13237 whole entry, looked up): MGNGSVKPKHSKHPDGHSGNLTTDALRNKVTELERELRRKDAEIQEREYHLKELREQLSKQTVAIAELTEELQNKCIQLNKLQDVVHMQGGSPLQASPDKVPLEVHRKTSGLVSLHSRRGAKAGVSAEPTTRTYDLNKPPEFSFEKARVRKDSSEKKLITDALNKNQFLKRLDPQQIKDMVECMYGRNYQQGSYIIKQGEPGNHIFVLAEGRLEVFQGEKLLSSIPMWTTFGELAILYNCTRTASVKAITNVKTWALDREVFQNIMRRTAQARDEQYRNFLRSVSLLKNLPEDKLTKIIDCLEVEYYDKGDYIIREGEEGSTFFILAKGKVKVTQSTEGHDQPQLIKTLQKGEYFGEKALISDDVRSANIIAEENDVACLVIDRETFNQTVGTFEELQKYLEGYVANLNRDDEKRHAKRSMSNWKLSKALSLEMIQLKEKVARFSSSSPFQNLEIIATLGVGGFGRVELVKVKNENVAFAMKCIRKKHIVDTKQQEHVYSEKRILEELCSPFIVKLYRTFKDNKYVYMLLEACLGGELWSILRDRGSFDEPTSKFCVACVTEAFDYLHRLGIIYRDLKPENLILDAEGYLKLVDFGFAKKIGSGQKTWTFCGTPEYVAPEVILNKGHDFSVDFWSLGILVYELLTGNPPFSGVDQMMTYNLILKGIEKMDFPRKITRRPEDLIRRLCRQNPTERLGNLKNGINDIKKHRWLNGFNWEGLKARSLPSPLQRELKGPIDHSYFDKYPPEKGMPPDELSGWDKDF

CAMK2G (human) = CAMK2G (human) (UniProt Q13555)
[1] = target: JAK1 JH2 pseudokinase (human) (UniProt P23458)
Chain of JAK1 JH2 pseudokinase (human) (P23458 whole entry, looked up): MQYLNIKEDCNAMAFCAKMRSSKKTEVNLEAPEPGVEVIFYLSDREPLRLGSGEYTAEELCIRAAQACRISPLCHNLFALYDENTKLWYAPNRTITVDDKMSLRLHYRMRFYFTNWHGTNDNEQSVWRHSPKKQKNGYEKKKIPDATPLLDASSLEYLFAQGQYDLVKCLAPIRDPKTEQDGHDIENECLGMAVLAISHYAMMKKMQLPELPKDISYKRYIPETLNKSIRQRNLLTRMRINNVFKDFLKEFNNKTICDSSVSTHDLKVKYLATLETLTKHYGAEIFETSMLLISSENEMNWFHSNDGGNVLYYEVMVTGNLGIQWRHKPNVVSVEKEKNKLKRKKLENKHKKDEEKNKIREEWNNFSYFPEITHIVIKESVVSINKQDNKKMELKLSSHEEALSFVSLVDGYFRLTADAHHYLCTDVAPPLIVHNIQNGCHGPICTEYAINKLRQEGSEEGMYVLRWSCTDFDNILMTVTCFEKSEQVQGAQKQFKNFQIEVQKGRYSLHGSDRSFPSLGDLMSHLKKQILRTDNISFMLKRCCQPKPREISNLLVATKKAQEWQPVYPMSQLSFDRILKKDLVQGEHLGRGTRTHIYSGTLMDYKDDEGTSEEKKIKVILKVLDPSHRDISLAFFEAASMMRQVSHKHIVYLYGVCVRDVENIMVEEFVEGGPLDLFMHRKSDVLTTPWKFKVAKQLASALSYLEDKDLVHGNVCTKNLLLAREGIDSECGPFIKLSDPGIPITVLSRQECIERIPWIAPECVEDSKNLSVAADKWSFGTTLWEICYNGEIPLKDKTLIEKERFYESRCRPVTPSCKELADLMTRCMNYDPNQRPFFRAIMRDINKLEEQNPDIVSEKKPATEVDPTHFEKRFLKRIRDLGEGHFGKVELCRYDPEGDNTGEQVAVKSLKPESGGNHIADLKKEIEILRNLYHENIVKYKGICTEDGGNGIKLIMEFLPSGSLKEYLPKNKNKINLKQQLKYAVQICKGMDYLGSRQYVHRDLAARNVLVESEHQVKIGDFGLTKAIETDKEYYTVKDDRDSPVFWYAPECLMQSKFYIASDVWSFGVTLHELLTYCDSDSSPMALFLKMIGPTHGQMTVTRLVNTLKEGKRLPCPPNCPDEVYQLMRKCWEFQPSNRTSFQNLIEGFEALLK

EPHB2 (human) = EPHB2 (human) (UniProt P29323)
CAMK2D (human) = CAMK2D (human) (UniProt Q13557)
Chain of CAMK2D (human) (Q13557 whole entry, looked up): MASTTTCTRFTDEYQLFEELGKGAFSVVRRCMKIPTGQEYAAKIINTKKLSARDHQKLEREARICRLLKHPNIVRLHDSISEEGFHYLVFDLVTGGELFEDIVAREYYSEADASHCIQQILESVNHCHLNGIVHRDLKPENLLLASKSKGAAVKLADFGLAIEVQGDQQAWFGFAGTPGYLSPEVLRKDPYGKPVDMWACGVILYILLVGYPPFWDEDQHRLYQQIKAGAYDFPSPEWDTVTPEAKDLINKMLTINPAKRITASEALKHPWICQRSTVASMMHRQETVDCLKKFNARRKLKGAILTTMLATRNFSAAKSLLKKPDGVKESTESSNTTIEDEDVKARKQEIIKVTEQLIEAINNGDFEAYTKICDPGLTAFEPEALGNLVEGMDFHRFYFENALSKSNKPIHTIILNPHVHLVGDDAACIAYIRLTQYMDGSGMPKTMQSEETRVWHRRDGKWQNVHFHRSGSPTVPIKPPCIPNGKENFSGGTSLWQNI

LTK (human) = LTK (human) (UniProt P29376)
TGFBR1 (human) = TGFBR1 (human) (UniProt P36897)
EPHB4 (human) = EPHB4 (human) (UniProt P54760)
FGFR3 (human) = FGFR3 (human) (UniProt P22607)
PHKG2 (human) = PHKG2 (human) (UniProt P15735)
CAMK1 (human) = CAMK1 (human) (UniProt Q14012)
FGFR2 (human) = FGFR2 (human) (UniProt P21802)
PRKCH (human) = PRKCH (human) (UniProt P24723)
PAK4 (human) = PAK4 (human) (UniProt O96013)
PTK6 (human) = PTK6 (human) (UniProt Q13882)
CSK (human) = CSK (human) (UniProt P41240)
IGF1R (human) = IGF1R (human) (UniProt P08069)
PAK1 (human) = PAK1 (human) (UniProt Q13153)
PAK7 (human) = PAK7 (human) (UniProt Q9P286)
EPHA7 (human) = EPHA7 (human) (UniProt Q15375)

Chain of STK32C (human) (Q86UX6 whole entry, looked up): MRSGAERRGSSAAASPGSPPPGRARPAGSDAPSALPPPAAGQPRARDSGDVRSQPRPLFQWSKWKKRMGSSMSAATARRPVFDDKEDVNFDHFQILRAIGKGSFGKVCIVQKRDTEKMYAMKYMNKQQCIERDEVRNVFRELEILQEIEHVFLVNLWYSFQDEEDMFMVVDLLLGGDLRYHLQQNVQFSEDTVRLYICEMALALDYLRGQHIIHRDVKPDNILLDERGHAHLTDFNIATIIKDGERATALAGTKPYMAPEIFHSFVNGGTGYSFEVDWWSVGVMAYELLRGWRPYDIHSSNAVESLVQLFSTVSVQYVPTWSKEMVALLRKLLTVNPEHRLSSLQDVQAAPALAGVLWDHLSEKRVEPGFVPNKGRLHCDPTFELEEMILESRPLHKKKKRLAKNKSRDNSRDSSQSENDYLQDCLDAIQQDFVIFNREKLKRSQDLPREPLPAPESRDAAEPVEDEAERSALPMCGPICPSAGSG
Chain of MAPK9 (human) (P45984 whole entry, looked up): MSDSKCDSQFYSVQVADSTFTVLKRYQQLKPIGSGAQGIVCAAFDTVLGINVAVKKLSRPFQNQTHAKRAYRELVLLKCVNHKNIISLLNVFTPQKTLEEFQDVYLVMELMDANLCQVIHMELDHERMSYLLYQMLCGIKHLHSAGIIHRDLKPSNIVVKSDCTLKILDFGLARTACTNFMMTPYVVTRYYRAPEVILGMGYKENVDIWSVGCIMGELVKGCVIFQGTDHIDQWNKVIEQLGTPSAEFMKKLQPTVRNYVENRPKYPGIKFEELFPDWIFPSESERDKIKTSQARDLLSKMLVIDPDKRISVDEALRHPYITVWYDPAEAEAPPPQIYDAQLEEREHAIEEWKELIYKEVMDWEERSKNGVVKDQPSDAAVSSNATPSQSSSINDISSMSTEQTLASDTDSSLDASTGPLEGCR

Row | SMILES | kinase still bound, per cent of control (PLK3 (human)) | kinase still bound, per cent of control (STK32C (human)) | kinase still bound, per cent of control (RIPK2 (human)) | kinase still bound, per cent of control (PTK2 (human)) | kinase still bound, per cent of control (MAPK9 (human)) | kinase still bound, per cent of control (PRKACB (human)) | kinase still bound, per cent of control (PIM2 (human)) | kinase still bound, per cent of control (PRKCA (human)) | kinase still bound, per cent of control (PAK3 (human)) | kinase still bound, per cent of control (STK32B (human)) | kinase still bound, per cent of control (NEK9 (human)) | kinase still bound, per cent of control (TXK (human)) | kinase still bound, per cent of control (PHKG1 (human)) | kinase still bound, per cent of control (PKMYT1 (human)) | kinase still bound, per cent of control (DMPK (human)) | kinase still bound, per cent of control (PRKG2 (human)) | kinase still bound, per cent of control (CAMK2G (human)) | kinase still bound, per cent of control [1] | kinase still bound, per cent of control (CAMK2D (human)) | kinase still bound, per cent of control (TGFBR1 (human)) | also measured
1 | NC(=O)Nc1sc(-c2ccc(F)cc2)cc1C(N)=O | no effect (inactive) | no effect (inactive) | no effect (inactive) | no effect (inactive) | no effect (inactive) | no effect (inactive) | no effect (inactive) | no effect (inactive) | no effect (inactive) | no effect (inactive) | no effect (inactive) | no effect (inactive) | no effect (inactive) | no effect (inactive) | no effect (inactive) | no effect (inactive) | no effect (inactive) | 0% | no effect (inactive) | no effect (inactive) | kinase still bound, per cent of control (FGFR4 (human)): no effect (inactive); kinase still bound, per cent of control (ACVR1B (human)): no effect (inactive); kinase still bound, per cent of control (BMPR1A (human)): no effect (inactive); kinase still bound, per cent of control (EPHA6 (human)): no effect (inactive); kinase still bound, per cent of control (EPHB2 (human)): no effect (inactive); kinase still bound, per cent of control (LTK (human)): no effect (inactive)
2 | Cc1ccc(O)cc1Nc1ccnc(Nc2cccc(C(N)=O)c2)n1 | – | no effect (inactive) | 0% | no effect (inactive) | no effect (inactive) | no effect (inactive) | no effect (inactive) | no effect (inactive) | no effect (inactive) | no effect (inactive) | no effect (inactive) | 0% | no effect (inactive) | – | no effect (inactive) | no effect (inactive) | no effect (inactive) | no effect (inactive) | no effect (inactive) | 0% | kinase still bound, per cent of control (EPHB4 (human)): 0%; kinase still bound, per cent of control (FGFR3 (human)): no effect (inactive); kinase still bound, per cent of control (PHKG2 (human)): no effect (inactive); kinase still bound, per cent of control (CAMK1 (human)): no effect (inactive); kinase still bound, per cent of control (FGFR2 (human)): no effect (inactive); kinase still bound, per cent of control (PRKCH (human)): no effect (inactive); kinase still bound, per cent of control (PAK4 (human)): no effect (inactive); kinase still bound, per cent of control (PTK6 (human)): 0%; kinase still bound, per cent of control (EPHA6 (human)): 0%; kinase still bound, per cent of control (EPHB2 (human)): 0%; kinase still bound, per cent of control (CSK (human)): 0%; kinase still bound, per cent of control (IGF1R (human)): no effect (inactive); kinase still bound, per cent of control (LTK (human)): no effect (inactive)
3 | Cc1cc(Nc2cc(N3CCN(C)CC3)nc(Sc3ccc(NC(=O)C4CC4)cc3)n2)[nH]n1 | no effect (inactive) | no effect (inactive) | no effect (inactive) | no effect (inactive) | no effect (inactive) | no effect (inactive) | no effect (inactive) | no effect (inactive) | – | no effect (inactive) | no effect (inactive) | no effect (inactive) | no effect (inactive) | no effect (inactive) | no effect (inactive) | no effect (inactive) | no effect (inactive) | no effect (inactive) | no effect (inactive) | no effect (inactive) | kinase still bound, per cent of control (PHKG2 (human)): no effect (inactive); kinase still bound, per cent of control (PAK1 (human)): no effect (inactive); kinase still bound, per cent of control (CAMK1 (human)): no effect (inactive); kinase still bound, per cent of control (PRKCH (human)): no effect (inactive); kinase still bound, per cent of control (PAK4 (human)): no effect (inactive); kinase still bound, per cent of control (PTK6 (human)): no effect (inactive); kinase still bound, per cent of control (PAK7 (human)): no effect (inactive); kinase still bound, per cent of control (ACVR1B (human)): no effect (inactive); kinase still bound, per cent of control (BMPR1A (human)): no effect (inactive); kinase still bound, per cent of control (EPHA7 (human)): no effect (inactive); kinase still bound, per cent of control (CSK (human)): no effect (inactive)
